Literature values as cited in US20200038318A1, “ORAL MEDICATION FORMULATIONS” (GRUNBIOTICS PTY LTD, priority 2016, published 2020).

Test system: patients with major depressive disorder who have a partial response or no response to SSRIs
Conditions: 15 mg/day

CN1c2c([nH]c(N)nc2=O)NC[C@@H]1CNc1ccc(C(=O)N[C@@H](CCC(=O)O)C(=O)O)cc1 [L-methylfolate]
Efficacy, safety and tolerability as adjunctive treatment: effective safe and relatively well tolerated
